Results on 17 compounds are retold here after patent US20220411750A1, “CELL STRUCTURE, PRODUCTION METHOD THEREOF, AND METHOD FOR EVALUATING HEPATOTOXICITY OF SUBSTANCE TO BE TESTED” (TOPPAN INC., priority 2019, published 2022).

Read-outs that look alike come from different tables or passages of the source.

Data set [1] relates to cell structure having a liver sinusoidal network produced using heparin and a collagen solution (Example B). In words: Toxicity evaluation by ATP assay, cell structure of Example B (produced using heparin and a collagen solution). The conditions noted are these: for IC50: Homo sapiens, read-out: IC50 Example B; for IC50 Example B: ATP assay, cell structure produced using heparin and collagen solution.
Method: (§1) 10 days after the start of the culture, again, the medium was replaced with a medium in which the drug was dissolved, and after 14 days, the cell activity was quantified by ATP assay.
(§2) PXB cells, SEC and LX2 were mixed so that the following proportions and cell amount were obtained, and thereby a cell mixture was obtained. • Total amount of cells per well: 30,000 cells • Cell proportions in tissue:
(§3) The same amounts of 1.0 mg/mL heparin solution (buffer: 100 mM Tris-HCL) and 0.3 mg/mL collagen solution (buffer: 5 mM acetate) were mixed to obtain a heparin/collagen solution.
(§4) 100 μL of the heparin/collagen solution was added to the cell mixture and suspended until the cells were visible, and then centrifuged (400 g×2 min), and a viscous component was formed in the solution.
(§5) After the supernatant was removed from the solution containing the viscous component, a 20 U/mL thrombin solution (solvent: HCM (culture medium for hepatocytes)) was added so that the final volume of the solution was “the number of wells to be seeded”×2 μL volume of the solution, and thereby a cell suspension was obtained.
(§6) 10 mg/mL of a fibrinogen solution was put into a 48 plate, and droplets were formed. The cell suspension was added into the droplets, and then left in the incubator for 40 minutes, and a fibrin gel was formed.
(§7) 0.5 mL of HCM (containing endothelial cell growth supplement) was added to each well in which the fibrin gel was formed, and a liver model was obtained as a cell structure.
(§8) The toxicity was evaluated with IC50 and MOS value. The MOS value is an index used for toxicity evaluation as a value considering the maximum drug concentration (Cmax).

For data set [2] the following is noted: cited from earlier work; for Toxicity: Yes/No, Yes for No. 1-14, No for No. 15-18.
Data set [3] relates to cell structure having a liver sinusoidal network produced using CMF (Example A). In words: Toxicity evaluation by ATP assay, cell structure of Example A (produced using CMF). To be noted: for IC50: Homo sapiens, read-out: IC50 Example A; for MOS value [IC50/Cmax] Example A: ATP assay IC50 divided by Cmax; for MOS value [IC50/Cmax] Example A / IC50 Example A: cell structure produced using CMF, "Outside" = Outside measurement range; for IC50 Example A: ATP assay, drug medium from day 7, replaced day 10, assay after 14 days.
Method: (§9) 100 mg of a type I collagen sponge fragment derived from pig skin (commercially available from NH Foods Ltd.) was heated at 200° C. for 24 hours, and thus a collagen component of which at least a part was cross-linked (cross-linked collagen component) was obtained. […] 50 mg of the cross-linked collagen component was put into a 15 mL tube, 5 mL of ultrapure water was added thereto, and the mixture was homogenized using a homogenizer (VH-10 commercially available from As One Corporation) for 6 minutes.
(§10) An aqueous solution containing the homogenized cross-linked collagen component was centrifuged at 10,000 rpm for 10 minutes under conditions of 21° C. The supernatant was suctioned, and collagen pellets were mixed with 5 mL of fresh ultrapure water to prepare a collagen solution. While the tube containing the collagen solution was kept on ice, an ultrasonic treatment was performed using a sonicator (VC50 commercially available from Sonics and Materials) at 100 V for 20 seconds, the sonicator was removed, and the tube containing the collagen solution was then cooled on ice for 10 seconds, which was repeated 100 times. After the ultrasonic treatment was performed 100 times, the collagen solution was filtered with a filter having a pore size of 40 μm to obtain a dispersion solution containing a defibrated collagen component (sCMF). The dispersion solution was freeze-dried by a conventional method to obtain a defibrated collagen component (sCMF) as a dried product.
(§11) A dispersion solution A in which the defibrated collagen component was dispersed in a medium (DMEM) containing serum in which 10 mg/mL of fibrinogen (commercially available from Sigma) was dissolved so that the concentration was 30 mg/mL was obtained. In addition, a dispersion solution B in which cells were dispersed in a medium (DMEM) containing serum in which 10 U/mL of thrombin (commercially available from Sigma) was dissolved so that the total number of cells per well was 30,000 cells. 10 μL of a suspension in which the obtained dispersion solution A (defibrated collagen component) and dispersion solution B were mixed at 1:1 was added to each well of a 48-well plate.
(§12) Regarding the medium, a mixed medium (mass ratio: 1:1) containing a medium for vascular endothelia 1 (ECM) and a medium for mesenchymal stem cell proliferation (MSCGM2), a medium for vascular endothelia 1 (ECM), or a medium for vascular endothelia 1 (ECM) and a medium for hepatocytes (d-HCGM) were used.
as §1, §8

Data set [4] deals with liver sinusoidal network of liver model (PXB cells, SEC, LX2). In words: Monocrotaline administration experiment, CD31 immunostaining of liver model. Format: cell-based, human. To be noted: monocrotaline 2,000, 666, 222 or 74 μM on Day 1 and Day 4; observed Day 7; 1% DMSO. On the procedure:
1 day (Day 1) and 4 days (Day 4) after the start of the culture of the liver model, administration was performed on the liver model by replacing the medium with a medium containing monocrotaline at a concentration of 2,000 μM, 666 μM, 222 μM, or 74 μM. Here, the compound used was dissolved in advance in DMSO at a high concentration and stored, and during administration, DMSO was contained at a concentration of 1% in the medium. Since 1% DMSO was contained in each administration condition, replacement of the medium with a medium containing only 1% DMSO was performed at the same time, and the result was used as a negative control.
For the samples on which administration was performed, a fixing treatment, a permeation treatment, blocking, a primary antibody treatment, a secondary antibody treatment, imaging and area calculation and evaluation were performed in that order. Hereinafter, the procedure from the fixing treatment to evaluation will be described. […]
The intensities of the images captured by the above method were added up to obtain a fluorescence observation image of each liver model.

Data set [5] relates to two-dimensional primary human hepatocytes (2D PHH). To be noted: literature data, "Outside" = Outside measurement range; cited from earlier work.
Data set [6] has as its system 3D human liver microtissues (3D hLiMT). The conditions noted are these: literature data, "Outside" = Outside measurement range; cited from earlier work.
The conditions of data set [7]: maximum drug concentration used for MOS value; cited from earlier work.
Data set [8] relates to cell structure having a liver sinusoidal network produced using CMF (Example A). The conditions noted are these: human.
Method: as §9, §10, §11, §12, §1, §8
Data set [9] has as its system cell structure having a liver sinusoidal network produced using heparin and a collagen solution (Example B). To be noted: human.
Method: as §1, §2, §3, §4, §5, §6, §7, §8
Setting [10] is: "Outside" = Outside measurement range.

Turning to `Cc1c(C)c2c(c(C)c1O)CCC(C)(COc1ccc(CC3SC(=O)NC3=O)cc1)O2` (stereo not drawn) [Troglitazone], the IC50 (in general, the concentration at which inhibition is half-maximal) in [1] was 50.2 µM; in data set [3], 17.1 µM. Moreover, the Toxicity entry in data set [2] was “Yes”.

On to `C[C@H]1C(=O)O[C@@H]2CCN3CC=C(COC(=O)[C@](C)(O)[C@]1(C)O)[C@H]23` [monocrotaline], for which the “Fragmentation of liver sinusoidal network (CD31 immunostaining)” value in data set [4] is “liver sinusoidal network became fragmented as the monocrotaline concentration increased”.

In the case of `C[C@H]1COc2c(N3CCN(C)CC3)c(F)cc3c(=O)c(C(=O)O)cn1c23` [Levofloxacin], the “MOS value [IC50/Cmax] Reference Example A” value in [5] is recorded as “Outside”. Also, the IC50 in [1] was found to be 960 µM. Also, the “MOS value [IC50/Cmax] Reference Example B” value in data set [6] is given as “Outside”. Further, the Toxicity result in data set [2] is “Yes”. In [7], the Cmax (commonly the maximum level reached in the sampled fluid or tissue) was 15.8 µM. Moreover, in [3], the “MOS value [IC50/Cmax] Example A” value was “Outside”.

Take `Cc1ccc(C(=O)c2cc(O)c(O)c([N+](=O)[O-])c2)cc1` [Tolcapone]: the results for the IC50 in [1] and in data set [3] were 88.7 µM and 32.4 µM, respectively. In addition, the Toxicity result in data set [2] was “Yes”. Besides, the Cmax in data set [7] is 47.6 µM.

Turning to `O=P1(N(CCCl)CCCl)NCCCO1` (stereo not drawn) [Cyclophosphamide], the “MOS value [IC50/Cmax] Reference Example A” value in data set [5] is recorded as “Outside”. For the same compound, the figures for the IC50 in data set [1] and in data set [3] were 1360 µM and 1670 µM, respectively. Besides, in data set [6], the “MOS value [IC50/Cmax] Reference Example B” value is “Outside”. For the same compound, in data set [2], the Toxicity result is given as “Yes”. The peak concentration (Cmax) in data set [7] was 143 µM.

As to `COc1ccccc1Oc1c(NS(=O)(=O)c2ccc(C(C)(C)C)cc2)nc(-c2ncccn2)nc1OCCO` [Bosentan], the “MOS value [IC50/Cmax] Reference Example A” value in [5] was “Outside”. The IC50 in data set [1] is 209 µM; in data set [3] it was 67.1 µM. Moreover, the Toxicity entry in [2] is “Yes”. Besides, the Cmax in data set [7] was 7.43 µM.

For the compound `CCOC(=O)c1ncn2c1CN(C)C(=O)c1cc(F)ccc1-2` [Flumazenil], the “MOS value [IC50/Cmax] Reference Example A” value in [5] is “Outside”. Further, the “MOS value [IC50/Cmax] Example B” value in data set [1] (ATP assay IC50 divided by Cmax, cell structure produced using heparin and collagen, "Outside" = Outside measurement range) is “Outside”. Further, in data set [1] (setting [10]), the “IC50 Example B” value is “Outside”. In addition, the “MOS value [IC50/Cmax] Reference Example B” value in data set [6] was “Outside”. For the same compound, the Toxicity result in [2] was “No”. Besides, the “DILI severity category (LKBT)” value in data set [2] (drug-induced liver injury severity category) is “I”. Further, the Cmax in data set [7] is 1.12 µM. For the same compound, in [3], the “MOS value [IC50/Cmax] Example A” value was “Outside” and the “IC50 Example A” value was “Outside”.

For `CCc1nn(CCCN2CCN(c3cccc(Cl)c3)CC2)c(=O)n1CCOc1ccccc1` [Nefazodone], the IC50 came to 32.4 µM in [1] and 22.1 µM in [3]. Besides, in data set [2], the Toxicity result was “Yes”. For the same compound, the Cmax in [7] is 4.26 µM.

Turning to `CN(C)C(=O)Oc1ccc[n+](C)c1` [Pyridostigmine], in data set [1] (setting [10]), the “IC50 Example B” value is “Outside”. Besides, the Toxicity entry in [2] was “No”. Also, in [7], the Cmax is 1.1 µM. Further, the “IC50 Example A” value in data set [3] is reported as “Outside”.

For `CCOC(=O)CN[C@@H](C(=O)N1CC[C@H]1C(=O)NCc1ccc(/C(N)=N\O)cc1)C1CCCCC1` [Ximelagatran], the Toxicity result in data set [2] is on record as “Yes”. Moreover, the Cmax in [7] is 0.45 µM.

As for `CN(CCOc1ccc(CC2SC(=O)NC2=O)cc1)c1ccccn1` (stereo not drawn) [Rosiglitazone], the “MOS value [IC50/Cmax] Reference Example A” value in data set [5] was “Outside”. Besides, the IC50 came to 79.1 µM in data set [1] and 46.5 µM in data set [3]. The Toxicity result in data set [2] is on record as “Yes”. The Cmax in data set [7] is 1.04 µM.

For `CC(=O)Nc1ccc(O)cc1` [Acetaminophen], the values for the IC50 in data set [1] and in [3] were 868 µM and 761 µM, respectively. Also, the Toxicity result in [2] is reported as “Yes”. Moreover, the Cmax in [7] was 165 µM.

`Nc1cc(N2CCCCC2)nc(N)[n+]1[O-]` [Minoxidil0]: in data set [1] (setting [10]), the “IC50 Example B” value is recorded as “Outside”. Also, the Cmax in data set [7] is 1.19 µM. In data set [3], the “IC50 Example A” value was “Outside”.

With `Cc1ccc(N(CC2=NCCN2)c2cccc(O)c2)cc1` [Phentolamine], the figures for the IC50 in data set [1] and in [3] were 66 µM and 180 µM, respectively. For the same compound, the Toxicity result in [2] is given as “No”. The Cmax in data set [7] was 0.09 µM.

As for `C1CCC(C(CC2CCCCN2)C2CCCCC2)CC1` (stereo not drawn) [Perhexiline], the IC50 in data set [1] was 3.2 µM; in data set [3], 5.4 µM. Besides, in data set [2], the Toxicity entry is “Yes”. In data set [8], the “MOS value [IC50/Cmax] Example A” value was determined as 2.5. Moreover, the “MOS value [IC50/Cmax] Example B” value in data set [9] was found to be 1.5.

For `Cc1onc(-c2c(F)cccc2Cl)c1C(=O)N[C@@H]1C(=O)N2[C@@H]1SC(C)(C)[C@@H]2C(=O)O` [Flucloxacillin], the IC50 in [1] came to 5800 µM; in data set [3], 1390 µM. Besides, the Toxicity result in [2] is “Yes”. For the same compound, in data set [7], the highest concentration (Cmax) was 66.1 µM.

With `O=C(O)Cc1ccccc1Nc1c(Cl)cccc1Cl` [Diclofenac], the values for the IC50 in [1] and in [3] were 232 µM and 64.1 µM, respectively. In data set [7], the Cmax was 10.1 µM.
